Tested on: 188146-221-R-J1-PDC complex spheroid viability
Experiment: Anticancer human tumor 188146-221-R-J1-PDC patient-derived colon adenocarcinoma cell line growth inhibition [POLQ]
Conditions: for IC50: curve of first compound; for viability, T/C: stronger effect = lower value; active = viability on the fitted dose curve at most 10% of control; inactive = the rest
Summary of the method: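 Growth inhibition in 3D: complex spheroids (tumor PDC, HUVEC, MSC) treated with POLQ inhibitor combinations; where Cmax unknown, highest tested concentration 10 microM, except SN-38 at 1 microM.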

[1] = second compound 0.0316 µM, first compound 0.0316 µM
[2] = second compound 0.0316 µM, first compound 0.1 µM
[3] = second compound 0.0316 µM, first compound 0.316 µM
[4] = second compound 0.0316 µM, first compound 1 µM
[5] = second compound 0.0316 µM, first compound 3.16 µM
[6] = second compound 0.0316 µM, first compound 10 µM
[7] = second compound 0.1 µM, first compound 0.0316 µM
[8] = second compound 0.1 µM, first compound 0.1 µM
[9] = second compound 0.1 µM, first compound 0.316 µM
[10] = second compound 0.1 µM, first compound 1 µM
[11] = second compound 0.1 µM, first compound 3.16 µM
[12] = second compound 0.1 µM, first compound 10 µM
[13] = second compound 0.316 µM, first compound 0.0316 µM
[14] = second compound 0.316 µM, first compound 0.1 µM
[15] = second compound 0.316 µM, first compound 0.316 µM
[16] = second compound 0.316 µM, first compound 1 µM
[17] = second compound 0.316 µM, first compound 3.16 µM
[18] = second compound 0.316 µM, first compound 10 µM
[19] = second compound 1 µM, first compound 0.0316 µM
[20] = second compound 1 µM, first compound 0.1 µM
[21] = second compound 1 µM, first compound 0.316 µM
[22] = second compound 1 µM, first compound 1 µM
[23] = second compound 1 µM, first compound 3.16 µM
[24] = second compound 1 µM, first compound 10 µM
[25] = second compound 3.16 µM, first compound 0.0316 µM
[26] = second compound 3.16 µM, first compound 0.1 µM
[27] = second compound 3.16 µM, first compound 0.316 µM
[28] = second compound 3.16 µM, first compound 1 µM
[29] = second compound 3.16 µM, first compound 3.16 µM
[30] = second compound 3.16 µM, first compound 10 µM
[31] = second compound 10 µM, first compound 0.0316 µM
[32] = second compound 10 µM, first compound 0.1 µM
[33] = second compound 10 µM, first compound 0.316 µM
[34] = second compound 10 µM, first compound 1 µM
[35] = second compound 10 µM, first compound 3.16 µM
[36] = second compound 10 µM, first compound 10 µM
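Note: spheroids exposed to compounds for seven days.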
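Throughout, for viability, T/C: 100% = DMSO vehicle control viability.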

CCc1cc2c(N3CCc4c(cc(Cn5ccnc5)cc4-c4cn(C)nc4C(F)(F)F)C3=O)ccnc2c(OC)n1 + Nc1ccc(C#CCN(C(=O)Cc2ncc(C(F)(F)F)cc2C(F)(F)F)c2ccc(F)cc2)nn1
9.81 µM: IC50 (second compound 0.1 µM)
9.79 µM: IC50 (second compound 1 µM)
inactive: viability, T/C [1] 105% | viability, T/C [2] 107% | viability, T/C [3] 90.8% | viability, T/C [4] 93.7% | viability, T/C [5] 73% | viability, T/C [6] 54.6% | viability, T/C [7] 110% | viability, T/C [8] 116% | viability, T/C [9] 87.9% | viability, T/C [10] 104% | viability, T/C [11] 82.3% | viability, T/C [12] 48.6% | viability, T/C [13] 119% | viability, T/C [14] 108% | viability, T/C [15] 101% | viability, T/C [16] 91.4% | viability, T/C [17] 75.6% | viability, T/C [18] 51.3% | viability, T/C [19] 113% | viability, T/C [20] 101% | viability, T/C [21] 85.8% | viability, T/C [22] 95.6% | viability, T/C [23] 72.4% | viability, T/C [24] 48.2% | viability, T/C [25] 106% | viability, T/C [26] 91% | viability, T/C [27] 94.1% | viability, T/C [28] 87.8% | viability, T/C [29] 87.1% | viability, T/C [30] 50% | viability, T/C [31] 110% | viability, T/C [32] 113% | viability, T/C [33] 107% | viability, T/C [34] 82.5% | viability, T/C [35] 71.2% | viability, T/C [36] 52.5%
> 10 µM: IC50 (second compound 0.0316 µM) | IC50 (second compound 0.316 µM) | IC50 (second compound 3.16 µM) | IC50 (second compound 10 µM)

C=CC(=O)N1CCN(c2nc(=O)n(-c3c(C)ccnc3C(C)C)c3nc(-c4c(O)cccc4F)c(F)cc23)C(C)C1 (centres undefined) + COC1C(OC(N)=O)C(O)C(Oc2ccc3c(O)c(NC(=O)c4ccc(O)c(CC=C(C)C)c4)c(=O)oc3c2C)OC1(C)C
> 10 µM: IC50 (second compound 0.0316 µM) | IC50 (second compound 0.1 µM) | IC50 (second compound 0.316 µM) | IC50 (second compound 1 µM) | IC50 (second compound 3.16 µM) | IC50 (second compound 10 µM)
inactive: viability, T/C [1] 103% | viability, T/C [2] 97% | viability, T/C [3] 85.7% | viability, T/C [4] 99.1% | viability, T/C [5] 98.7% | viability, T/C [6] 72.4% | viability, T/C [7] 107% | viability, T/C [8] 107% | viability, T/C [9] 94.6% | viability, T/C [10] 105% | viability, T/C [11] 88.1% | viability, T/C [12] 92.6% | viability, T/C [13] 110% | viability, T/C [14] 107% | viability, T/C [15] 103% | viability, T/C [16] 110% | viability, T/C [17] 95.3% | viability, T/C [18] 83.6% | viability, T/C [19] 93.2% | viability, T/C [20] 105% | viability, T/C [21] 113% | viability, T/C [22] 101% | viability, T/C [23] 101% | viability, T/C [24] 90.4% | viability, T/C [25] 107% | viability, T/C [26] 109% | viability, T/C [27] 100% | viability, T/C [28] 101% | viability, T/C [29] 90.3% | viability, T/C [30] 87.2% | viability, T/C [31] 96% | viability, T/C [32] 107% | viability, T/C [33] 108% | viability, T/C [34] 97.5% | viability, T/C [35] 115% | viability, T/C [36] 93.7%
